Data published in US12078642B2, “Methods for evaluating and improving cognitive function” (THE UNIVERSITY OF MELBOURNE, priority 2017, dated 2024).
“And” between values parts separate entries of the source, which are not always exact repeats. Equal entries are not always repeated.

Tested on: old mice
Assay: Barnes Maze cognitive function (memory) test
Type: in vivo, mouse
Conditions: for Time searching for the escape hatch in the target zone after CE 18:1 versus before (FIG. 11): old mice (24 months), same mice before and after CE 18:1 enriched diet, 470 mg per kg
Experimental: The cognitive function of the mice was tested using a Barnes Maze. The Barnes maze makes use of a mouse's nature to avoid bright lights and open spaces. The Barnes maze was a white 150 cm disk with 36 evenly spaced holes. The disk is elevated 64 cm above the ground and four visual cues—two 3D cues and two 2D cues—are placed in four quadrants, denoting four possible escape holes. The escape box was placed under the assigned escape hole and fastened by tape. Four portable floodlights were used to evenly illuminate the maze and a light meter was used to ensure consistent brightness of 3400 to 3600 lux. Prior to the beginning of a trial, the maze and the escape box were cleaned with 80% ethanol to remove olfactory cues.
The mouse was placed in the centre of the maze under a cover. The cover was then retracted using a pulley system and the mouse was allowed to explore the maze for four minutes to find and enter the escape hole. If the mouse entered the escape hole in less than four minutes, the time was recorded and the floodlights switched off. If the mouse had not entered the escape hole after four minutes, the mouse was gently guided to the escape hole and lights were switched off. The mouse was allowed to remain in the escape box for one minute before it was returned to its home box outside the experimental room. For the probe trial, the escape box was removed and the trial length was shortened to 3 minutes (180 seconds). The duration required, distance traveled, and latency to the assigned escape hole was recorded using topscan lite 2.0. The time the mouse spent in the “target zone” (the 5 holes consisting of the assigned escape hole and the two holes on either side) searching for the assigned escape hole was also recorded.
Trials were conducted over seven days; day 1 contained a single habituation trial, days 2-6 contained 3 acquisition trials a day and day 7 contained a single probe trial. […]
The CE 18:1 oral administration consisted of 20 mg CE 18:1 suspended in 0.5 g of raspberry flavoured agar jelly. To prepare the CE 18:1 enriched jelly, 4 g of agar powder and 0.1 g NaOH pellets was dissolved in 13 ml raspberry flavoured cordial, with MilliQ water added q.s. to form a total of 200 mL jelly solution. To the jelly solution, 400 mg of cholesteryl oleate was suspended in 40 ml of jelly to form the CE 18:1 oral administration.
Seven old mice (24 months old) were subjected to the Barnes Maze as described above, and the time the mice spent investigating the “target zone” during the probe trial was investigated. The same seven old mice were then fed 0.5 g of the CE 18:1 enriched jelly once a day (20 mg CE 18:1, 4% w/w), which correlated to a CE 18:1 dosage rate of 470 mg per kg of bodyweight. The mice were the subjected to the Barnes Maze as described above, and the time the mice spent investigating the “target zone” during the probe trial was investigated.

[1] = individual old mice (24 months), probe trial of 180 s, after 0.5 g CE 18:1 enriched jelly once a day orally (20 mg CE 18:1, 470 mg per kg bodyweight), one value per mouse

CCCCCCCC/C=C\CCCCCCCC(=O)O[C@H]1CC[C@@]2(C)C(=CC[C@H]3[C@@H]4CC[C@H]([C@H](C)CCCC(C)C)[C@@]4(C)CC[C@@H]32)C1 [CE 18:1, cholesteryl oleate]
Percentage of time spent at target zone out of 180 sec (%), After CE 18:1, AVERAGE (average of seven old mice (24 months), probe trial, after CE 18:1 jelly orally 470 mg per kg, before CE 18:1: 4.70%): 9.5%
Duration at target zone (s), After CE 18:1, AVERAGE (average of seven old mice (24 months), probe trial, after CE 18:1 jelly orally 470 mg per kg, before CE 18:1: 8.47 s): 17.10 s
Duration at target zone (s), After CE 18:1 [1]: 16.00 s and 16.48 s and 28.68 s and 4.84 s and 23.40 s and 21.28 s and 9.04 s
Percentage of time spent at target zone out of 180 sec (%), After CE 18:1 [1]: 8.89% and 9.16% and 15.93% and 2.69% and 13.00% and 11.82% and 5.02%
Time searching for the escape hatch in the target zone after CE 18:1 versus before (FIG. 11) (probe trial): statistical increase in time searching for the escape hatch in the target zone
Time searching for the escape hatch in the target zone after CE 18:1 versus before (FIG. 11) (probe trial, listed as cholesteryl oleate): improved cognitive function in mice
Time searching for the escape hatch in the target zone after CE 18:1 versus before (FIG. 11) (probe trial, listed as cholesteryl oleate (CE 18:1)): spent more time investigating the target zone
